SMILES strings stand for the structures.

For the experiment, the target named is T1, C5aR (Homo sapiens, UniProt P21730).
T1 construct: U937 cells are a monocytic cell line which express C5aR; host or cells: U937 cells (cAMP treated) or isolated neutrophils
T1 sequence (P21730 1-350): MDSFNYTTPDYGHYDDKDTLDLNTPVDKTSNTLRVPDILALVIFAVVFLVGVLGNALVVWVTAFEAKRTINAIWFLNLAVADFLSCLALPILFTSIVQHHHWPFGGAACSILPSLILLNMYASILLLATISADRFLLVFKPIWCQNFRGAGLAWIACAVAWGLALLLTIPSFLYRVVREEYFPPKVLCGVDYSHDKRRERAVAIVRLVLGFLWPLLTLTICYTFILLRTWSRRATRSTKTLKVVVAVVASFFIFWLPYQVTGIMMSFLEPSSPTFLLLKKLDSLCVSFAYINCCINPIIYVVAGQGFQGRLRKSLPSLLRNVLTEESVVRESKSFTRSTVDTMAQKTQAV
Description: chemotaxis assay (C5aR mediated migration). The conditions noted are these: migration of U937 or neutrophil cells toward C5a (0.03 nM), 1.5 hours at 37° C., read-out: Mig IC50. Format: cell-based. The procedure: U937 cells are a monocytic cell line which express C5aR, and are available from ATCC (VA). […] Cells were grown under 5% CO2/95% air, 100% humidity at 37° C. and subcultured twice weekly at 1:6 (cells were cultured at a density range of 1×10^5 to 2×10^6 cells/mL) and harvested at 1×10^6 cells/mL. Prior to assay, cells are treated overnight with 0.5 mM of cyclic AMP (Sigma, Ohio) and washed once prior to use. cAMP treated U937 cells can be used in C5aR ligand binding and functional assays.
Optionally, human or murine neutrophils can be used to assay for compound activity. Neutrophils may be isolated from fresh human blood using density separation and centrifugation. Briefly, whole blood is incubated with equal parts 3% dextran and allowed to separate for 45 minutes. After separation, the top layer is layered on top of 15 mls of Ficoll (15 mls of Ficoll for every 30 mls of blood suspension) and centrifuged for 30 minutes at 400×g with no brake. The pellet at the bottom of the tube is then isolated and resuspended into PharmLyse RBC Lysis Buffer (BD Biosciences, San Jose, Calif.) after which the sample is again centrifuged for 10 minutes at 400×g with brake. The remaining cell pellet is resuspended as appropriate and consists of isolated neutrophils.
Optionally, compounds may be further assayed for their ability to inhibit chemotaxis in cells. Chemotaxis assays are performed using 5 μm pore polycarbonate, polyvinylpyrrolidone-coated filters in 96-well chemotaxis chambers (Neuroprobe; Gaithersburg, Md.) using chemotaxis buffer (Hank's balanced salt solution (HBSS) and 1% FBS). C5aR ligands (i.e., C5a, R&D Systems; Minneapolis, Minn.) are use to evaluate compound mediated inhibition of C5aR mediated migration. Other chemokines (i.e., SDF-1α; R&D Systems; Minneapolis, Minn.) are used as specificity controls. […] The chambers are incubated 1.5 hours at 37° C., and the number of cells in the lower chamber quantified either by direct cell counts in five high powered fields per well or by the CyQuant assay (Molecular Probes), a fluorescent dye method that measures nucleic acid content and microscopic observation.
In general, IC50 refers to the midpoint of a concentration-inhibition curve. `Cc1cccc(OCC(C)C)c1-n1nc2c(c1-c1ccc3[nH]ccc3c1)CN(CC(C)(C)C)CC2` [Example 1.237]: the IC50 was under 5 nM.
The result for `CCc1cccc(CC)c1-n1nc2c(c1-c1cc(F)c(OC)c3[nH]ccc13)CN(c1ncc(C3CC3)cn1)CC2` [Example 1.050] reads under 5 nM.
Turning to `COc1cnc(N2CCc3nn(-c4c(C)cccc4C)c(-c4ccc(Cl)c5[nH]ccc45)c3C2)nc1` [Example 1.112], the IC50 lay within 5 to 50 nM.
For the molecule `CCc1cccc(CC)c1-n1nc2c(c1-c1ccc3[nH]ccc3c1)CN(C1CCCC1)CC2` [Example 1.209], the half-inhibitory concentration (IC50) is 5 to 50 nM.
Take `CCc1cccc(CC)c1-n1nc2c(c1-c1c(F)cc(Cl)c3[nH]ccc13)CN(c1ncc(C(=O)N3CCCC3)cn1)CC2` [Example 1.076]: the IC50 was under 5 nM.
With `COc1c(F)cc(-c2c3c(nn2-c2c(C)cccc2C)CCN(c2ncc(C4CC4)cn2)C3)c2cc[nH]c12` [Example 1.003], the half-maximal inhibitory concentration (IC50) is under 5 nM.
The figure for `CCc1cccc(CC)c1-n1nc2c(c1-c1ncc(C)c3[nH]ccc13)CN(c1ncc(C(F)(F)F)cn1)CC2` [Example 1.020] is under 5 nM; for `CCc1cccc(CC)c1-n1nc2c(c1-c1c(F)cc(C)c3[nH]ccc13)CN(c1ncc(C(F)(F)F)cn1)CC2` [Example 1.141] it is under 5 nM; for `Cc1cccc(OCC(C)C)c1-n1nc2c(c1-c1ccc3[nH]ccc3c1)CN(C(C)CC(F)(F)F)CC2` (stereo not shown) [Example 1.206] it is 5 to 50 nM.
Consider `CCc1cccc(CC)c1-n1nc2c(c1-c1ccc(Cl)c3[nH]ccc13)CN(c1ncc(CO)cn1)CC2` [Example 1.097], for which the IC50 fell in the range of 5 to 50 nM.
For the molecule `CCc1cccc(CC)c1-n1nc2c(c1-c1cc(F)c(F)c3[nH]ccc13)CN(c1ncc(C(C)C)cn1)CC2` [Example 1.117], the concentration for half-maximal inhibition (IC50) is 5 to 50 nM.
Regarding `COc1c(F)cc(-c2c3c(nn2-c2c(C)cccc2F)CCN(c2ncc(C(F)(F)F)cn2)C3)c2cc[nH]c12` [Example 1.002], the IC50 fell in the range of 5 to 50 nM.
`CCc1cccc(CC)c1-n1nc2c(c1-c1c(F)cc(Cl)c3[nH]ccc13)CN(c1ccc(C(C)C)cn1)CC2` [Example 1.109]: the IC50 was under 5 nM.
For `CCc1cccc(CC)c1-n1nc2c(c1-c1ccc(CO)c3[nH]ccc13)CN(c1ccc(C(F)(F)F)cn1)CC2` [Example 1.171], the IC50 is under 5 nM.
The result for `CCc1cccc(CC)c1-n1nc2c(c1-c1ccc(F)c3[nH]ccc13)CN(c1ncc(C(F)(F)F)cc1Cl)CC2` [Example 1.183] reads 5 to 50 nM.
For the molecule `CCc1cccc(CC)c1-n1nc2c(c1-c1ccc(Cl)c3[nH]ccc13)CN(c1nccc(C)n1)CC2` [Example 1.110], the concentration for half-maximal inhibition (IC50) lay within 5 to 50 nM.
Take `CCc1cccc(CC)c1-n1nc2c(c1-c1cc(F)c3[nH]ccc3c1)CN(c1ncc(C(F)(F)F)cc1F)CC2` [Example 1.083]: the IC50 was in the range of 5 to 50 nM.
As to `Cc1cccc(C)c1-n1nc2c(c1-c1ccc3[nH]ccc3c1F)CN(c1ncc(Cl)cc1Cl)CC2` [Example 1.195], the IC50 fell in the range of 5 to 50 nM.
In the case of `CCc1cccc(CC)c1-n1nc2c(c1-c1ccc(F)c3[nH]ccc13)CN(c1ncc(C3CC3)cc1Cl)CC2` [Example 1.176], the IC50 was under 5 nM.
On to `CCc1cccc(CC)c1-n1nc2c(c1-c1cc(F)c(OC)c3[nH]cc(F)c13)CN(c1ncc(C(F)(F)F)cn1)CC2` [Example 1.023], for which the IC50 was under 5 nM.
As to `Cc1cccc(C)c1-n1nc2c(c1-c1ccc(C)c3[nH]ccc13)CN(c1ncc(C(C)C)cn1)CC2` [Example 1.131], the IC50 is 5 to 50 nM.
On to `Cc1cccc(C)c1-n1nc2c(c1-c1ccc3[nH]ccc3c1)CN(C(=O)OC(C)(C)C)CC2` [Example 1.240], for which the IC50 was 5 to 50 nM.
Turning to `Cc1cccc(C)c1-n1nc2c(c1-c1ccc(C)c3[nH]ccc13)CN(c1ncc(C(F)(F)F)cn1)CC2` [Example 1.107], the IC50 lay within 5 to 50 nM.
As for `CCc1cccc(CC)c1-n1nc2c(c1-c1cccc3[nH]c(C(F)(F)F)nc13)CN(c1ncc(C(F)(F)F)cn1)CC2` [Example 1.042], the IC50 lay in the range of 50 to 500 nM.
Take `CCc1cccc(CC)c1-n1nc2c(c1-c1ccc3[nH]ccc3c1)CN(Cc1ccccc1C(F)(F)F)CC2` [Example 1.231]: the IC50 is under 5 nM.
The result for `CCc1cccc(CC)c1-n1nc2c(c1-c1cnc3[nH]ccc3c1)CN(c1ncc(C(F)(F)F)cn1)CC2` [Example 1.011] reads over 500 nM; that for `Cc1cccc(C)c1-n1nc2c(c1-c1cccc3[nH]ccc13)CN(c1ncc(Cl)cc1Cl)CC2` [Example 1.196], 5 to 50 nM.
The figure for `CCc1cccc(CC)c1-n1nc2c(c1-c1c(F)cc(CO)c3[nH]ccc13)CN(c1ncc(C(C)C)cc1F)CC2` [Example 1.094] is under 5 nM.
The figure for `CCc1cccc(CC)c1-n1nc2c(c1-c1ccnc3[nH]ccc13)CN(c1ncc(C(F)(F)F)cn1)CC2` [Example 1.029] is 5 to 50 nM.
For the molecule `CCc1cccc(CC)c1-n1nc2c(c1-c1ccc(C(N)=O)c3[nH]ccc13)CN(c1ncc(C(F)(F)F)cc1F)CC2` [Example 1.168], the IC50 was 50 to 500 nM.
Consider `CCc1cccc(CC)c1-n1nc2c(c1-c1ccc(Cl)c3[nH]cnc13)CN(c1ncc(C(F)(F)F)cn1)CC2` [Example 1.035], for which the IC50 is under 5 nM.
Take `COc1c(F)cc(-c2c3c(nn2-c2c(C)cccc2C)CCN(c2ncc(C(F)(F)F)cn2)C3)c2cc[nH]c12` [Example 1.004]: the IC50 lay in the range of 5 to 50 nM.
As to `Cc1cccc(C)c1-n1nc2c(c1-c1cc(F)c3[nH]ccc3c1)CN(c1ncc(Cl)cc1Cl)CC2` [Example 1.194], the IC50 was in the range of 50 to 500 nM.
For the molecule `CCc1cccc(CC)c1-n1nc2c(c1-c1ccc(OC)c3[nH]ccc13)CN(c1ncc(C(F)(F)F)cn1)CC2` [Example 1.087], the IC50 lay within 5 to 50 nM.
For `CCc1cccc(CC)c1-n1nc2c(c1-c1ccc3[nH]cc(Cl)c3c1)CN(Cc1cc(F)ccc1Cl)CC2` [Example 1.220], the IC50 was in the range of 5 to 50 nM.
Regarding `Cc1cccc(C)c1-n1nc2c(c1-c1ccc3[nH]ncc3c1)CN(c1ncc(Cl)cc1Cl)CC2` [Example 1.192], the IC50 is over 500 nM.
`CCc1cccc(CC)c1-n1nc2c(c1-c1ccc(C)c3[nH]ccc13)CN(c1ccc(C(C)C)cn1)CC2` [Example 1.127]: the IC50 was under 5 nM.
As for `CCc1cccc(CC)c1-n1nc2c(c1-c1c(F)cc(Cl)c3[nH]ccc13)CN(c1ncc(CN3CCCC3)cn1)CC2` [Example 1.055], the IC50 is 5 to 50 nM.
As for `CCc1cccc(CC)c1-n1nc2c(c1-c1ccc(Cl)c3[nH]cc(C)c13)CN(c1ncc(C(F)(F)F)cc1F)CC2` [Example 1.146], the IC50 was under 5 nM.
Consider `CCc1cccc(CC)c1-n1nc2c(c1-c1ccc(Cl)c3[nH]ccc13)CN(c1ncc(C)c(C(=O)O)n1)CC2` [Example 1.075], for which the IC50 lay in the range of 50 to 500 nM.
`Cc1cccc(OCC(C)C)c1-n1nc2c(c1-c1ccc3[nH]ccc3c1)CN(Cc1cc(Cl)ccc1C(F)(F)F)CC2` [Example 1.203]: the IC50 is 5 to 50 nM.
With `CCc1cccc(CC)c1-n1nc2c(c1-c1ccc(Cl)c3[nH]ccc13)CN(c1ncc(C(C)C)cc1F)CC2` [Example 1.152], the IC50 was under 5 nM.
Take `CCc1cccc(CC)c1-n1nc2c(c1-c1c(F)cc(Cl)c3[nH]ccc13)CN(c1ncc(OC(C)C)cn1)CC2` [Example 1.048]: the IC50 was under 5 nM.
The figure for `Cc1cccc(C)c1-n1nc2c(c1-c1c(F)cc(Cl)c3[nH]ccc13)CN(c1ccc(C(C)C)cn1)CC2` [Example 1.106] is under 5 nM; for `CCc1cccc(CC)c1-n1nc2c(c1-c1cc(F)c(Cl)c3[nH]ncc13)CN(c1ncc(C(F)(F)F)cn1)CC2` [Example 1.041] it is under 5 nM.
The figure for `CCc1cccc(CC)c1-n1nc2c(c1-c1c(F)cc(Cl)c3[nH]ccc13)CN(c1ncc(C3CC3)cc1F)CC2` [Example 1.062] is under 5 nM; for `Cc1cccc(C)c1-n1nc2c(c1-c1c(F)cc(Cl)c3[nH]ccc13)CN(c1ncc(C(F)(F)F)cc1F)CC2` [Example 1.124] it is 5 to 50 nM; for `CCc1cccc(CC)c1-n1nc2c(c1-c1ccc(Cl)c3[nH]ncc13)CN(c1ncc(C3CC3)cn1)CC2` [Example 1.065] it is under 5 nM.
Take `CCc1cccc(CC)c1-n1nc2c(c1-c1ccc(C)c3[nH]ccc13)CN(c1ccc(C(F)(F)F)cn1)CC2` [Example 1.142]: the IC50 is under 5 nM.

The values above are taken from patent US11384079B2, “6-5 fused rings as C5a inhibitors” (CHEMOCENTRYX, INC., priority 2017, dated 2022).
